Assay results: the supplement of paper PMC11451515

System: NOMO1
Test: cell viability relative to DMSO control; higher = less cytotoxic
Details: 48 h
Procedure, shortened: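 Three leukemia lines were tested: NOMO1 and SEM at 500 cells/well and P12-Ichikawa at 1000 cells/well. Each was adapted for at least four passages in each medium and seeded in 5 μl in 1536-well plates, and library compounds in DMSO were pin-dosed from 47 μM to 0.79 nM in 11 threefold steps. After 48 h at 37°C, CellTiter-Glo One luminescence was read. Viability is a percentage relative to DMSO wells on each plate, with cell-free wells as background.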

[1] = HPLM + 10% dialyzed FBS, 0.000781 µM
[2] = HPLM + 10% dialyzed FBS, 0.00234 µM
[3] = HPLM + 10% dialyzed FBS, 0.00702 µM
[4] = HPLM + 10% dialyzed FBS, 0.0211 µM
[5] = HPLM + 10% dialyzed FBS, 0.0632 µM
[6] = HPLM + 10% dialyzed FBS, 0.19 µM
[7] = HPLM + 10% dialyzed FBS, 0.569 µM
[8] = HPLM + 10% dialyzed FBS, 1.71 µM
[9] = HPLM + 10% dialyzed FBS, 5.12 µM
[10] = HPLM + 10% dialyzed FBS, 15.4 µM
[11] = HPLM + 10% dialyzed FBS, 46.1 µM
[12] = RPMI 5 mM glucose + 10% FBS, 0.000781 µM
[13] = RPMI 5 mM glucose + 10% FBS, 0.00234 µM
[14] = RPMI 5 mM glucose + 10% FBS, 0.00702 µM
[15] = RPMI 5 mM glucose + 10% FBS, 0.0211 µM
[16] = RPMI 5 mM glucose + 10% FBS, 0.0632 µM
[17] = RPMI 5 mM glucose + 10% FBS, 0.19 µM
[18] = RPMI 5 mM glucose + 10% FBS, 0.569 µM
[19] = RPMI 5 mM glucose + 10% FBS, 1.71 µM
[20] = RPMI 5 mM glucose + 10% FBS, 5.12 µM
[21] = RPMI 5 mM glucose + 10% FBS, 15.4 µM
[22] = RPMI 5 mM glucose + 10% FBS, 46.1 µM
[23] = RPMI 5 mM glucose + 10% dialyzed FBS, 0.000781 µM
[24] = RPMI 5 mM glucose + 10% dialyzed FBS, 0.00234 µM
[25] = RPMI 5 mM glucose + 10% dialyzed FBS, 0.00702 µM
[26] = RPMI 5 mM glucose + 10% dialyzed FBS, 0.0211 µM
[27] = RPMI 5 mM glucose + 10% dialyzed FBS, 0.0632 µM
[28] = RPMI 5 mM glucose + 10% dialyzed FBS, 0.19 µM
[29] = RPMI 5 mM glucose + 10% dialyzed FBS, 0.569 µM
[30] = RPMI 5 mM glucose + 10% dialyzed FBS, 1.71 µM
[31] = RPMI 5 mM glucose + 10% dialyzed FBS, 5.12 µM
[32] = RPMI 5 mM glucose + 10% dialyzed FBS, 15.4 µM
[33] = RPMI 5 mM glucose + 10% dialyzed FBS, 46.1 µM

Row | SMILES | cell viability [1] | cell viability [2] | cell viability [3] | cell viability [4] | cell viability [5] | cell viability [6] | cell viability [7] | cell viability [8] | cell viability [9] | cell viability [10] | cell viability [11] | cell viability [12] | cell viability [13] | cell viability [14] | cell viability [15] | cell viability [16] | cell viability [17] | cell viability [18] | cell viability [19] | cell viability [20] | cell viability [21] | cell viability [22] | cell viability [23] | cell viability [24] | cell viability [25] | cell viability [26] | cell viability [27] | cell viability [28] | cell viability [29] | cell viability [30] | cell viability [31] | cell viability [32] | cell viability [33]
1 | C\C1=C\C(=O)C2=C(C=CC=C2)C1=O | 100% | 122% | 117% | 134% | 132% | 126% | 126% | 134% | 128% | 131% | 127% | 116% | 108% | 120% | 125% | 133% | 133% | 137% | 124% | 129% | 125% | 140% | 119% | 117% | 131% | 130% | 140% | 128% | 135% | 151% | 128% | 148% | 134%
2 | NC1=NC=C(C=C1)C2=CC=C3N=CC\4=C(N(C(=O)\C=C4)C5=CC(=CC=C5)C(F)(F)F)C3=C2 | 80.5% | 76.8% | 62.6% | 57.6% | 41.2% | 27.1% | 24.1% | 24.3% | 21.4% | 18.6% | 16.5% | 86.1% | 83.9% | 75.3% | 74.4% | 55% | 29.7% | 30.3% | 23.2% | 15.3% | 11.7% | 13.2% | 68.9% | 72.8% | 74.1% | 61.4% | 46% | 28.5% | 29.5% | 22.9% | 17.2% | 13.5% | 17.1%
3 | Cc1c(Cn2c(C)nc3c(C(=O)O)cc(N4CCOCC4)cc32)cccc1C(F)(F)F | 98.3% | 114% | 121% | 125% | 115% | 120% | 106% | 121% | 105% | 95.8% | 16.3% | 87.2% | 95.4% | 101% | 108% | 103% | 97.1% | 108% | 116% | 112% | 101% | 75% | 89.2% | 112% | 105% | 117% | 98.9% | 101% | 111% | 112% | 96.6% | 102% | 85.8%
4 | CC(C)Nc1cc(C(F)(F)F)cc2nc(NC(=O)c3cccnc3)nn12 | 120% | 116% | 118% | 126% | 123% | 101% | 119% | 85.2% | 80.8% | 71.6% | 54.2% | 106% | 107% | 115% | 106% | 98.1% | 118% | 116% | 52.6% | 45.9% | 56.5% | 64.8% | 108% | 109% | 115% | 119% | 125% | 103% | 98.2% | 55% | 50.4% | 56.9% | 62.9%
5 | CC[C@H]1/C=C\C=C/C[C@@H](C)[C@H](O)[C@@](C)(O)C(=O)[C@@H](C)[C@H](O)[C@@H](C)C(=O)[C@@H](C)[C@H](O)[C@@H](C)/C=C/C(=O)O[C@@H]2[C@H](C)[C@H](CC1)O[C@]1(CC[C@H](C)[C@H](C[C@@H](C)O)O1)[C@H]2C | 74.4% | 89.4% | 105% | 117% | 103% | 106% | 108% | 55.4% | 40.7% | 31.6% | 5.57% | 83% | 86.4% | 87.1% | 88.9% | 82.7% | 104% | 92.7% | 44.7% | 39.1% | 37.6% | 4.56% | 81.4% | 89.2% | 92.9% | 83.9% | 75.1% | 94.4% | 79.7% | 54.2% | 39.9% | 31.6% | 4.92%
6 | COc1cc2c(Oc3ccc(NC(=O)C4(C(=O)Nc5ccc(F)cc5)CC4)cc3F)ccnc2cc1OCCCN1CCOCC1 | 74.7% | 83.2% | 79.3% | 92% | 89.5% | 83.1% | 84.3% | 61% | 63.4% | 28.5% | 4.74% | 80.8% | 86.3% | 91.7% | 94.6% | 85.8% | 85.1% | 86.8% | 72.8% | 41% | 36.9% | 4.62% | 81.2% | 75.3% | 84.8% | 93.8% | 85.6% | 72.1% | 80.9% | 46.5% | 43.3% | 29.6% | 5.96%
7 | CO[C@H]1C[C@@H]2CC[C@@H](C)[C@@](O)(O2)C(=O)C(=O)N2CCCC[C@H]2C(=O)O[C@H]([C@H](C)C[C@@H]2CC[C@@H](OC(=O)C(C)(CO)CO)[C@H](OC)C2)CC(=O)[C@H](C)/C=C(\C)[C@@H](O)[C@@H](OC)C(=O)[C@H](C)C[C@H](C)/C=C/C=C/C=C/1C | 91.2% | 113% | 105% | 98.5% | 93.4% | 102% | 98.6% | 92.8% | 93.9% | 82.1% | 64.7% | 108% | 108% | 114% | 117% | 98.3% | 113% | 110% | 110% | 77% | 74.5% | 60.3% | 96.1% | 115% | 106% | 103% | 108% | 101% | 101% | 108% | 93.2% | 71.6% | 64.5%
8 | CCc1c(C(=O)C(N)=O)c2c(OCC(=O)O)cccc2n1Cc1ccccc1 | 113% | 105% | 94.9% | 103% | 122% | 103% | 107% | 100% | 89.4% | 90.8% | 96.5% | 92% | 105% | 91.1% | 103% | 104% | 93.1% | 89.2% | 103% | 98.2% | 100% | 92.3% | 95.3% | 103% | 105% | 101% | 105% | 86.9% | 103% | 96.6% | 96.3% | 91.6% | 92%
9 | Clc1cc(Cl)cc(CNc2ncncc2-c2ccc3c(c2)OCO3)c1 | 81.1% | 85.8% | 97.1% | 94.1% | 101% | 92.4% | 94.6% | 90.8% | 85.7% | 82.7% | 16.1% | 77.6% | 85.5% | 87.6% | 80.7% | 101% | 96.6% | 87.3% | 97.9% | 85.4% | 87.7% | 40.3% | 91.5% | 92.1% | 81.4% | 93.7% | 82% | 93.5% | 84.2% | 87.3% | 88.8% | 101% | 52.9%
10 | CN(C)C(=O)c1ccc([S+](=O)([O-])c2ccc(NC(=O)[C@@](C)(O)C(F)(F)F)c(Cl)c2)cc1 | 104% | 104% | 114% | 123% | 95.9% | 128% | 126% | 105% | 91.3% | 33% | 10.2% | 104% | 109% | 102% | 105% | 114% | 101% | 112% | 99.4% | 105% | 38.7% | 13.5% | 95.9% | 109% | 116% | 118% | 108% | 104% | 104% | 91.2% | 99.8% | 89.7% | 60.4%
11 | Oc1ccc(/C=C/c2cc(O)cc(O)c2)cc1 | 108% | 112% | 115% | 111% | 107% | 114% | 92.4% | 117% | 97.5% | 50.1% | 10.4% | 109% | 98.8% | 111% | 105% | 98% | 102% | 99.8% | 107% | 95.3% | 103% | 15.1% | 89.7% | 106% | 98.1% | 104% | 103% | 105% | 99.2% | 97.4% | 102% | 83.4% | 18.4%
12 | CC(C)n1nc(-c2ccc3oc(N)nc3c2)c2c(N)ncnc21 | 96.9% | 75.9% | 65.1% | 62.6% | 55.3% | 53.6% | 52.2% | 55% | 50.6% | 33.1% | 26.3% | 93.1% | 96.5% | 83.3% | 77.6% | 66.6% | 59.2% | 56.8% | 50.3% | 49.9% | 38.7% | 34.4% | 83.4% | 74.5% | 67.2% | 58.5% | 59.6% | 52.6% | 51.7% | 48.6% | 43.2% | 35.7% | 31.3%
13 | Cn1cc(-c2ccc3nnc(C(F)(F)c4ccc5ncccc5c4)n3n2)cn1 | 115% | 99.1% | 97.5% | 107% | 101% | 106% | 105% | 101% | 95.4% | 103% | 69.3% | 110% | 106% | 135% | 109% | 107% | 106% | 99.6% | 94.9% | 106% | 96.6% | 87.2% | 87.3% | 98.4% | 111% | 97.8% | 99.2% | 98.6% | 119% | 108% | 99.5% | 96.2% | 81.3%
14 | [NH2][Pt]([NH2])([Cl])[Cl] | 94.8% | 110% | 91.2% | 103% | 121% | 110% | 93.8% | 99.4% | 95.5% | 90.5% | 94% | 83.7% | 92.2% | 79.8% | 99.6% | 89.7% | 103% | 85.9% | 88.1% | 84.6% | 82.4% | 81.3% | 90% | 90.6% | 88% | 85.8% | 97.4% | 94.7% | 96.8% | 96% | 94.9% | 89.3% | 101%
15 | Cc1nccn1CC1CCc2c(c3ccccc3n2C)C1=O (centres undefined) | – | – | – | – | – | – | – | – | – | – | – | 115% | 108% | 114% | 122% | 105% | 105% | 111% | 111% | 108% | 112% | 105% | 113% | 116% | 115% | 121% | 118% | 112% | 113% | 111% | 109% | 106% | 104%
